Structures can show the parent of a compound that is named as a salt.
Columns and labels:
isolated monocytes = experiment: Endotoxin-stimulated TNF-α secretion in isolated monocytes; type: cell-based, human; conditions: initial exposure
Text: (§1) With multiple re-exposure, the endotoxin-induced increase in TNF-α secretion is reduced, i.e. adaptation takes place.

[1] = system: human mononuclear cells of the peripheral blood (PBMC); experiment: Endotoxin-stimulated TNF-α secretion in PBMC; type: cell-based
Text: as §1

In the case of COC(=O)/C=C/C(=O)O [methyl hydrogen fumarate], the “endotoxin-stimulating TNF-α secretion” value (isolated monocytes) is reported as “initially increases”, the “endotoxin-stimulating TNF-α secretion” value ([1]; initial exposure, PBMC) is reported as “initially increases” and the “endotoxin-induced increase in TNF-α secretion” value ([1]; multiple re-exposure, cell type not restated) is reported as “reduced”.
